Experimental data published in patent US20240043427A1 (Gilead Sciences, Inc., priority 2020, published 2024).

Legend:
[1] = biological target: T1, CD73 (Homo sapiens (Human), UniProt P21589); experiment: MDA-MB-231 Cell Based CD73 Activity Assay (DMEM); conditions: MDA-MB-231-GFP cells, DMEM medium with 10% human plasma, 200 uM AMP
[2] = biological target: T1, CD73; type: biochemical; conditions: 1 mM NaH2PO4 in enzyme buffer, CD73 0.3 nM, AMP 15 uM

T1 sequence (P21589 27-574): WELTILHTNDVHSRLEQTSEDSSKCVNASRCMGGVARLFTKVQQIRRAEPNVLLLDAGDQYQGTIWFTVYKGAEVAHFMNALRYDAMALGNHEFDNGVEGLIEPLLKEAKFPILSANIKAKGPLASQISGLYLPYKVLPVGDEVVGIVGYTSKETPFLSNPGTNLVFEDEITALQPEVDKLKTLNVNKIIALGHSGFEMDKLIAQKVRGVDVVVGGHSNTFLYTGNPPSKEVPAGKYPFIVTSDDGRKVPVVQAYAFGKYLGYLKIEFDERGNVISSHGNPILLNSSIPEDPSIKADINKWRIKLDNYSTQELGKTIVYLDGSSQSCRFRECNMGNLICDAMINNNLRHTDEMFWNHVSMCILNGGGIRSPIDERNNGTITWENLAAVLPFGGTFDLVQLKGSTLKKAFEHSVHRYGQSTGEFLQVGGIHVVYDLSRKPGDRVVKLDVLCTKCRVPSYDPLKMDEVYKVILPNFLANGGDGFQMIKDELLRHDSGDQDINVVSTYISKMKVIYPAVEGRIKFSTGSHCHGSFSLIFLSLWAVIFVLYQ

Structure (SMILES) | EC50 [1] [nM] | IC50 [2] [nM]
O=c1[nH]cc(-c2cc(N3CCC4(CCC(F)(F)CC4)C3)c3nccn3n2)c(=O)[nH]1 [Example 587, 5-(8-(8,8-difluoro-2-azaspiro[4.5]decan-2-yl)imidazo[1,2-b]pyridazin-6-yl)pyrimidine-2,4(1H,3H)-dione] | 66.1 | 23.3
O=c1[nH]cc(-c2cc([C@H]3C[C@@H]3c3ncc(Cl)cc3F)c3ncc(F)n3n2)c(=O)[nH]1 [Example 588, 5-(8-((1S,2S)-2-(5-chloro-3-fluoropyridin-2-yl)cyclopropyl)-3-fluoroimidazo[1,2-b]pyridazin-6-yl)pyrimidine-2,4(1H,3H)-dione] | 2.33 | 0.69
O=c1[nH]cc(-c2cc(N3CCC(Cn4ccnn4)C3)c3nccn3n2)c(=O)[nH]1 (stereo not drawn) [Example 592, 5-(8-(3-((1H-1,2,3-triazol-1-yl)methyl)pyrrolidin-1-yl)imidazo[1,2-b]pyridazin-6-yl)pyrimidine-2,4(1H,3H)-dione] | 774 | 96.2
C#CCC1CCN(c2cc(-c3c[nH]c(=O)[nH]c3=O)nn3ccnc23)C1 (stereo not drawn) [Example 593, 5-(8-(3-(prop-2-yn-1-yl)pyrrolidin-1-yl)imidazo[1,2-b]pyridazin-6-yl)pyrimidine-2,4(1H,3H)-dione] | 33 | 7.24
O=c1[nH]cc(-c2cc([C@H]3C[C@@H]3c3ccc4cnn(CC(F)(F)F)c4c3F)c3nccn3n2)c(=O)[nH]1 [Example 594, 5-(8-((1S,2S)-2-(7-fluoro-1-(2,2,2-trifluoroethyl)-1H-indazol-6-yl)cyclopropyl)imidazo[1,2-b]pyridazin-6-yl)pyrimidine-2,4(1H,3H)-dione] | 0.12 | 0.58
O=c1[nH]cc(-c2cc([C@H]3C[C@@H]3c3cc4c(cnn4CC(F)(F)F)cc3F)c3nccn3n2)c(=O)[nH]1 [Example 595, 5-(8-((1S,2S)-2-(5-fluoro-1-(2,2,2-trifluoroethyl)-1H-indazol-6-yl)cyclopropyl)imidazo[1,2-b]pyridazin-6-yl)pyrimidine-2,4(1H,3H)-dione] | 0.52 | 1.27
O=c1[nH]cc(-c2cc([C@H]3C[C@@H]3c3cc(F)c4cnn(CC(F)(F)F)c4c3)c3nccn3n2)c(=O)[nH]1 [Example 596, 5-(8-((1S,2S)-2-(4-fluoro-1-(2,2,2-trifluoroethyl)-1H-indazol-6-yl)cyclopropyl)imidazo[1,2-b]pyridazin-6-yl)pyrimidine-2,4(1H,3H)-dione] | 0.14 | 0.7
O=c1[nH]cc(-c2cc([C@H]3C[C@@H]3c3ccc4c(C(F)(F)F)nn(CC(F)(F)F)c4c3)c3nccn3n2)c(=O)[nH]1 [Example 607, 5-(8-((1S,2S)-2-(1-(2,2,2-trifluoroethyl)-3-(trifluoromethyl)-1H-indazol-6-yl)cyclopropyl)imidazo[1,2-b]pyridazin-6-yl)pyrimidine-2,4(1H,3H)-dione] | 0.23 | 0.9
O=c1[nH]cc(-c2cc([C@H]3C[C@@H]3c3ccc4cnn(CC(F)(F)F)c4n3)c3ncc(F)n3n2)c(=O)[nH]1 [Example 610, 5-(3-fluoro-8-((1S,2S)-2-(1-(2,2,2-trifluoroethyl)-1H-pyrazolo[3,4-b]pyridin-6-yl)cyclopropyl)imidazo[1,2-b]pyridazin-6-yl)pyrimidine-2,4(1H,3H)-dione] | 0.23 | 0.37
O=c1[nH]cc(-c2cc([C@@H]3C[C@H]3c3cc4c(cn3)cnn4CC(F)(F)F)c3ncc(F)n3n2)c(=O)[nH]1 [Example 612, 5-(3-fluoro-8-((1R,2R)-2-(1-(2,2,2-trifluoroethyl)-1H-pyrazolo[4,3-c]pyridin-6-yl)cyclopropyl)imidazo[1,2-b]pyridazin-6-yl)pyrimidine-2,4(1H,3H)-dione] | 1.02 | 6.06
CC(n1ncc2ccc([C@H]3C[C@@H]3c3cc(-c4c[nH]c(=O)[nH]c4=O)nn4ccnc34)cc21)C(F)(F)F (stereo partly drawn) [Example 617, 5-(8-((1S,2S)-2-(1-(1,1,1-trifluoropropan-2-yl)-1H-indazol-6-yl)cyclopropyl)imidazo[1,2-b]pyridazin-6-yl)pyrimidine-2,4(1H,3H)-dione] | 0.22 | 0.78
O=c1[nH]cc(-c2cc([C@H]3C[C@@H]3c3cc(F)c4cnn(CC(F)(F)F)c4c3)c3ncc(F)n3n2)c(=O)[nH]1 [Example 618, 5-(3-fluoro-8-((1S,2S)-2-(4-fluoro-1-(2,2,2-trifluoroethyl)-1H-indazol-6-yl)cyclopropyl)imidazo[1,2-b]pyridazin-6-yl)pyrimidine-2,4(1H,3H)-dione] | 0.13 | 0.34
O=c1[nH]cc(-c2cc([C@H]3C[C@@H]3c3ccc4nc(C(F)(F)F)n(CC(F)(F)F)c4c3)c3nccn3n2)c(=O)[nH]1 [Example 620, 5-(8-((1S,2S)-2-(1-(2,2,2-trifluoroethyl)-2-(trifluoromethyl)-1H-benzo[d]imidazol-6-yl)cyclopropyl)imidazo[1,2-b]pyridazin-6-yl)pyrimidine-2,4(1H,3H)-dione] | 0.07 | 1.22
O=c1[nH]cc(-c2cc([C@H]3C[C@@H]3c3cnc4cnn(CC(F)(F)F)c4c3)c3ncc(F)n3n2)c(=O)[nH]1 [Example 628, 5-(3-fluoro-8-((1S,2S)-2-(1-(2,2,2-trifluoroethyl)-1H-pyrazolo[4,3-b]pyridin-6-yl)cyclopropyl)imidazo[1,2-b]pyridazin-6-yl)pyrimidine-2,4(1H,3H)-dione] | 0.23 | 0.73
O=c1[nH]cc(-c2cc([C@H]3C[C@@H]3c3ccc4cnn(CC(F)(F)F)c4c3F)c3ncnn3n2)c(=O)[nH]1 [Example 629, 5-(8-((1S,2S)-2-(7-fluoro-1-(2,2,2-trifluoroethyl)-1H-indazol-6-yl)cyclopropyl)-[1,2,4]triazolo[1,5-b]pyridazin-6-yl)pyrimidine-2,4(1H,3H)-dione] | 0.05 | 0.2
O=c1[nH]cc(-c2cc([C@H]3C[C@@H]3c3ccc(Cl)cc3)c3nccn3n2)c(=O)[nH]1 [Example 633, 5-(8-((1S,2S)-2-(4-chlorophenyl)cyclopropyl)imidazo[1,2-b]pyridazin-6-yl)pyrimidine-2,4(1H,3H)-dione] | 7.08 | 1.55
O=c1[nH]cc(-c2cc([C@@H]3C[C@H]3c3ccc(Cl)cc3)c3nccn3n2)c(=O)[nH]1 [Example 634, 5-(8-((1R,2R)-2-(4-chlorophenyl)cyclopropyl)imidazo[1,2-b]pyridazin-6-yl)pyrimidine-2,4(1H,3H)-dione] | 39 | 5.19
O=c1[nH]cc(-c2cc([C@H]3C[C@@H]3c3ncc(C(F)(F)F)cc3F)c3nccn3n2)c(=O)[nH]1 [Example 635, 5-(8-((1S,2S)-2-(3-fluoro-5-(trifluoromethyl)pyridin-2-yl)cyclopropyl)imidazo[1,2-b]pyridazin-6-yl)pyrimidine-2,4(1H,3H)-dione] | 2.75 | 2.08
O=c1[nH]cc(-c2cc([C@H]3C[C@@H]3c3cc4c(cn3)cnn4CC(F)(F)F)c3nccn3n2)c(=O)[nH]1 [Example 636, 5-(8-((1S,2S)-2-(1-(2,2,2-trifluoroethyl)-1H-pyrazolo[4,3-c]pyridin-6-yl)cyclopropyl)imidazo[1,2-b]pyridazin-6-yl)pyrimidine-2,4(1H,3H)-dione] | 0.13 | 0.34
O=c1[nH]cc(-c2cc([C@H]3C[C@@H]3c3cc4c(cn3)c(C(F)(F)F)nn4CC(F)(F)F)c3nccn3n2)c(=O)[nH]1 [Example 637, 5-(8-((1S,2S)-2-(1-(2,2,2-trifluoroethyl)-3-(trifluoromethyl)-1H-pyrazolo[4,3-c]pyridin-6-yl)cyclopropyl)imidazo[1,2-b]pyridazin-6-yl)pyrimidine-2,4(1H,3H)-dione] | 0.39 | 2.06
O=c1[nH]cc(-c2cc([C@H]3C[C@@H]3c3ccc4nc5n(c4c3)[C@H](C(F)(F)F)CC5)c3nccn3n2)c(=O)[nH]1 [Example 639, 5-(8-((1S,2S)-2-((S)-1-(trifluoromethyl)-2,3-dihydro-1H-benzo[d]pyrrolo[1,2-a]imidazol-7-yl)cyclopropyl)imidazo[1,2-b]pyridazin-6-yl)pyrimidine-2,4(1H,3H)-dione] | 0.58 | 2.42
O=c1[nH]cc(-c2cc([C@H]3C[C@@H]3c3ccc4nc5n(c4c3)[C@@H](C(F)(F)F)CC5)c3nccn3n2)c(=O)[nH]1 [Example 640, 5-(8-((1S,2S)-2-((R)-1-(trifluoromethyl)-2,3-dihydro-1H-benzo[d]pyrrolo[1,2-a]imidazol-7-yl)cyclopropyl)imidazo[1,2-b]pyridazin-6-yl)pyrimidine-2,4(1H,3H)-dione] | 0.12 | 1.6
O=c1[nH]cc(-c2cc(N3CC4CC3C4)c3nccn3n2)c(=O)[nH]1 [Example 641, 5-(8-(2-azabicyclo[2.1.1]hexan-2-yl)imidazo[1,2-b]pyridazin-6-yl)pyrimidine-2,4(1H,3H)-dione] | 207 | 77.5
O=c1[nH]cc(-c2cc(N3CC4CCC3C4)c3nccn3n2)c(=O)[nH]1 (stereo not drawn) [Example 643, 5-(8-(2-azabicyclo[2.2.1]heptan-2-yl)imidazo[1,2-b]pyridazin-6-yl)pyrimidine-2,4(1H,3H)-dione] | 98.9 | 36.4
O=c1[nH]cc(-c2cc(N3CC4CC4(C(F)(F)F)C3)c3nccn3n2)c(=O)[nH]1 (stereo not drawn) [Example 645, 5-(8-(1-(trifluoromethyl)-3-azabicyclo[3.1.0]hexan-3-yl)imidazo[1,2-b]pyridazin-6-yl)pyrimidine-2,4(1H,3H)-dione] | 79.6 | 49
O=c1[nH]cc(-c2cc(N3C4CCC3CC4)c3nccn3n2)c(=O)[nH]1 [Example 646, 5-(8-(7-azabicyclo[2.2.1]heptan-7-yl)imidazo[1,2-b]pyridazin-6-yl)pyrimidine-2,4(1H,3H)-dione] | 338 | > 250
O=c1[nH]cc(-c2cc(N3CC4CCC3CC4)c3nccn3n2)c(=O)[nH]1 [Example 647, 5-(8-(2-azabicyclo[2.2.2]octan-2-yl)imidazo[1,2-b]pyridazin-6-yl)pyrimidine-2,4(1H,3H)-dione] | 234 | 129
